Bridges are numbered along the chain shown (N, C = ends). Roman numbers before positions name the chains, in order. [ ]: non-standard residue; d: D form. Dap = NC[C@H](N)C(=O)O
How the values were obtained:
[1] = Titration circular dichroism spectroscopy of endotoxin binding; conditions: CD titration
Method: Circular dichroism (CD) spectroscopy can be used to determine the fractional percent of secondary structural elements present in a peptide preparation. Titration CD spectroscopy can be used to assess the effect of binding a ligand on the reorganization of peptide structure (You, Scarsdale, and Harris 1991; Sobel, Soler, et al 1992; Soler, Sobel and Harris 1992; Tyler-Cross, Sobel et al 1993; Tyler-Cross, Sobel, Marques et al, 1994). Thus, incremental amounts of endotoxin were added to a solution of TR3 CONST and the effect of binding endotoxin by the peptide was assessed by CD spectroscopy.
By CD, Tris Arg Helix #3 (constrained) is 18% helix in solution (20°C) but complexation with endotoxin increases the helix character of the peptide to nearly 50% (Figure 3). Note that binding of endotoxin is dose dependent and saturable.

E. coli (strain JM 109) [2] = experiment: Neutralization of endotoxin presented by intact E. coli, endotoxin chromogenic assay; format: biochemical, Escherichia coli; conditions: 3e06 or 3e07 E. coli per mL; increasing peptide concentrations; within 10 min at 37°C (Figure 5)
E. coli (strain JM 109) [3] = experiment: as above; format: biochemical, Escherichia coli; conditions: TR3 CONST 200 µg/mL; for % neutralization / Endotoxin Equivalents: 10 min, 37°C
Method: LPS is presented on the surface of gram-negative bacteria, such as Escherichia coli (E. coli). It was thus of interest to determine whether TR3 CONST would bind LPS present on whole bacterial cells. The assay method used was the endotoxin chromogenic assay as described above.
Thus, increasing amounts of E. coli (strain JM 109) were incubated (10 min; 37°C) in the presence or absence of 200 µg/mL TR3 CONST in 10 mM phosphate-150 mM NaCI-3 mM KCI buffer, pH 7.4. An aliquot of the incubation mixture was then assayed for residual endotoxin activity as previously described.
Equivalent endotoxin concentrations are deduced by reference to the endotoxin calibration curve.

[4] = Neutralization of endotoxin added to plasma or buffer, kinetic chromogenic Limulus Amebocyte Lysate endotoxin assay; format: biochemical
From the text: The presence of endotoxin may routinely be measured using, for example, a kinetic chromogenic method. The assay involves a complete set of enzyme reactions which are described in detail in the following publications, each of which is hereby incorporated by reference. Endosafe Limulus Amebocyte Lysate Endochrome-K™ package insert. (Endosafe, Charleston, SC) Pearson III, F., Pyrogens/Endotoxins, LAL Testing and Depyrogenation, 1985. Watson, S., Levin, J., and Novitsky, T., Progress in Clinical and Biological Research, Endotoxins and their detection with the Limulus Amebocyte Lysate Test, 93.
In the course of the endotoxin assay, a calibration curve is prepared which is a plot of logarithm of the time of the kinetic endpoint of a chromogenic reaction versus the logarithm of known concentrations of endotoxin.
Thus, if endotoxin is added to aqueous buffer solutions or to plasma the amount of endotoxin present can be assayed by reference to the calibration curve. Similarly, if plasma, plasma fractions, patient samples or any test solution contains an endogenous level of endotoxin, the level can also be determined by reference to the calibration curve.
Endotoxin was purposely added to plasma to a final concentration of 10 ng/mL and increasing concentrations of the compounds Arg Helix #2 (a monomeric cationic helix peptide), Bis Arg Helix #2 (which contains 2 copies of Arg Helix #2), Tris Arg Helix #3 (which contains 3 copies of Arg Helix #3), Tetra Arg Helix #3 (4 copies of Arg Helix #3) or Tris Arg Helix #3 (constrained) (3 copies of Arg Helix #3 constrained by design to present a "binding groove" within the molecule) were added to these same samples (Table 1).

## I: Ac-AEARARRAAARAARRAKKP[Dap]E-NH2 / II: Ac-AEARARRAAARAARRA / III: Ac-AEARARRAAARAARRA (amide I:18-II:C, I:20-III:C) [Tris Arg Helix #3 (constrained)]
[1]
  Kd: 870 nM
  N, stoichiometry of binding (endotoxin:peptide): 0.91
E. coli (strain JM 109) [2]
  neutralization of endotoxin as presented on the surface of E. coli: dose dependent neutralization
E. coli (strain JM 109) [3]; E. coli 3e03 organisms/mL
  % neutralization: 100%
  Endotoxin Equivalents: 0.00 ng/mL
E. coli (strain JM 109) [3]; E. coli 3e04 organisms/mL
  % neutralization: 100%
  Endotoxin Equivalents: 0.00 ng/mL
E. coli (strain JM 109) [3]; E. coli 3e05 organisms/mL
  % neutralization: 100%
  Endotoxin Equivalents: 0.00 ng/mL
E. coli (strain JM 109) [3]; E. coli 3e06 organisms/mL
  % neutralization: 87.9%
  Endotoxin Equivalents: 6.97 ng/mL
E. coli (strain JM 109) [3]; E. coli 3e07 organisms/mL
  % neutralization: 48.8%
  Endotoxin Equivalents: 94.3 ng/mL
E. coli (strain JM 109) [3]; E. coli 3e08 organisms/mL
  Endotoxin Equivalents: 440.0 ng/mL
E. coli (strain JM 109) [3]; E. coli up to 3e06 organisms/mL
  neutralization of the endotoxin activity: complete neutralization
[4]; 1 mg/ml peptide, water or plasma solution
  endotoxin quantitatively bound: > 1 µg/mL
[4]; Endotoxin 5, peptide 2.5 (ng/mL and mg/mL)
  Percent Binding of: 100%
[4]; Endotoxin 50, peptide 2.5 (ng/mL and mg/mL)
  Percent Binding of: 100%
[4]; Endotoxin 500, peptide 1.0 (ng/mL and mg/mL)
  Percent Binding of: ~100%
[4]; aqueous samples, compared with plasma
  neutralization of endotoxin added to aqueous samples: same results were obtained

From patent EP1232754A2, “Use of cationic helix peptides for treatment of sepsis and for detection and removal of endotoxins” (Commonwealth Biotechnologies, Inc., priority 2001, dated 2002)
